Data reported in patent publication US20240182941A1, “XYLOSYLATED STEVIOL GLYCOSIDES AND ENZYMATIC METHODS FOR PRODUCTION” (CARGILL, INCORPORATED, priority 2021, published 2024).
Where “and” joins values, the source holds several entries; their conditions need not be identical. Identical values can stand only once.

Key:
[1] = tested on: purified protein of SEQ ID NO:1; experiment: Time course of glycosylation of Reb A using SEQ ID NO:1 and activated sugars; format: biochemical, Oryza sativa Japonica Group
Method: (§1) Bioconversion reaction was carried out in a total of 100 uL sealed vials containing the Tris buffer, 0.1 μmoles of SG acceptor, 0.2 μmoles of activated sugar donor, 1 μmoles of sucrose and 2 ug protein of the enzymes. To each vial, buffer, sucrose, UDP-sugar donor, and SG acceptor were added in that order before finally the enzymes were added. For each SG donor, a control was included to contain the same amounts of sucrose and enzymes without UDP-sugar donors. After hand mixing, the vials were placed in a temperature-controlled shaker set at 30C and 100 rpm in rotating motion for 96 hours (4 days).
(§2) After 4 days of reaction, 0.9 mL of 80% acetonitrile was added to each vial and the resulting samples were analyzed in LC/MS. Xylose modification of the -19C(O)-β-Glc residue was confirmed.
The ability of SEQ ID NO:1 to glycosylate Reb A with different activated sugars used at different concentrations was examined, with the reaction products formed being measured over the course of the reaction.
Purified protein of SEQ ID NO:1 was used with UDP-glucose, UDP-xylose, and UDP-rhamnose di-sodium salts, and the reagents and reaction conditions were as described in Example 1.

[2] = cited from earlier work
[3] = tested on: glycosyltransferase polypeptide of SEQ ID NO:1; experiment: SG bioconversion with UDP-xylose using enzyme of SEQ ID NO:1; format: biochemical, Oryza sativa Japonica Group; settings: enzyme SEQ ID NO:1, 2 ug protein, 96 hours, 30C, runs 1 and 2
Method: (§3) Six steviolglycoside (SG) ‘acceptors’ Reb A, B, C, D, M and stevioside were tested using 2 glucosyltransferase enzymes (SEQ ID NO:1 and UGT76G1) known to play key roles in SG biosynthesis in stevia leaves and activated xylose (UDP-xylose).
(§4) UDP-xylose (98.9% purity) and UDP-rhamnose di-sodium salt (95% purity) were purchased from BOC Sciences. The activated sugar donors were prepared to 10 mM concentration with 0.05 M tris buffer and stored according to manufacturers' recommendations before use.
(§5) Enzyme of SEQ ID NO:1 and UGT76G1 enzyme were prepared in E. coli host cells as tagged proteins with expression induced by a chemical inducer. Following induction, the cells were incubated overnight and harvested. The cells were then lysed (either through sonication, mechanical disruption or chemical lysis) and the proteins purified through chromatography and stored frozen at −20C till use. Enzyme activities were confirmed using UDP-glucose in a preliminary test. Frozen enzyme solution was thawed right before use and returned to frozen storage after use.
(§6) SG materials were obtained from various sources with 90%+ purities. All SG materials were prepared at 20 mM with 90% DMSO and stored at ambient temperature. Final DMSO concentration in the reaction mixture was 4.5%.
(§7) Sucrose, previously shown to have a stabilizing effect on the bioconversion reaction, was prepared at 0.1 M with 0.05 M tris buffer.
(§8) Tris (tris(hydroxymethyl)aminomethane) buffer was prepared at 0.05 M, pH 7.3 and contained 3 mM each of MgCl2 and MnCl2 as co-factors.
as §1, §2

UGT76G1 = biological target: T1, UGT76G1 (Stevia rebaudiana, UniProt Q6VAB4); experiment: SG bioconversion with UDP-xylose using UGT76G1; format: biochemical; settings: enzyme UGT76G1, 2 ug protein, 96 hours, 30C, runs 1 and 2
T1 construct: unspecified tag; made in house; host or cells: E. coli
T1 sequence (Q6VAB4 1-458): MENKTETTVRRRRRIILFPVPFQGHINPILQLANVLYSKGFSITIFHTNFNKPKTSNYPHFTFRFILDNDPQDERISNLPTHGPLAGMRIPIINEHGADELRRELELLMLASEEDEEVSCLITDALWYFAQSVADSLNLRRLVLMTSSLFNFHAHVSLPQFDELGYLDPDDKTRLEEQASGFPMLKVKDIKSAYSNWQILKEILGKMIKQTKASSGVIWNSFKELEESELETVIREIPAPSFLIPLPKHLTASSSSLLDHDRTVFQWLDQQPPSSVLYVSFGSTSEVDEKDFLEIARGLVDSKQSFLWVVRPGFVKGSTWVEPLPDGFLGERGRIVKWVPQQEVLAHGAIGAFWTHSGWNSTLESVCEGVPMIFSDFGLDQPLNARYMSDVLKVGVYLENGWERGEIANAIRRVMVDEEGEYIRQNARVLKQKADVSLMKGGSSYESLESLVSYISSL
Method: as §3, §4, §5, §6, §7, §8, §1, §2

## C=C1C[C@@]23CC[C@H]4[C@@](C)(CCC[C@@]4(C)C(=O)O[C@@H]4O[C@H](CO)[C@@H](O)[C@H](O)[C@H]4O)[C@@H]2CC[C@]1(O[C@@H]1O[C@H](CO)[C@@H](O)[C@H](O[C@@H]2O[C@H](CO)[C@@H](O)[C@H](O)[C@H]2O)[C@H]1O[C@@H]1O[C@H](CO)[C@@H](O)[C@H](O)[C@H]1O)C3 [Reb A, rebaudioside A]
[1]; 1 mM activated sugars
  glucosylation and xylosylation plateaued after: 20 min
[1]; 2 mM activated sugars
  Rhamnosylation using UDP-rhamnose compared with glucosylation and xylosylation: significantly lower
  glucosylation and xylosylation plateaued after: 20 min
[1]; UDP-Glucose (1 mM), 0 hours
  % Reb A bioconversion: 0%
[1]; UDP-Glucose (1 mM), 18 hours
  % Reb A bioconversion: 68.47%
[1]; UDP-Glucose (1 mM), 48 hours
  % Reb A bioconversion: 68.6%
[1]; UDP-Glucose (1 mM), 96 hours
  % Reb A bioconversion: 68.1%
[1]; UDP-Glucose (2 mM), 0 hours
  % Reb A bioconversion: 0%
[1]; UDP-Glucose (2 mM), 18 hours
  % Reb A bioconversion: 84.93%
[1]; UDP-Glucose (2 mM), 48 hours
  % Reb A bioconversion: 83.9%
[1]; UDP-Glucose (2 mM), 96 hours
  % Reb A bioconversion: 82.1%
[1]; UDP-Rhamnose (2 mM), 0 hours
  % Reb A bioconversion: 0%
[1]; UDP-Rhamnose (2 mM), 18 hours
  % Reb A bioconversion: 14.7%
[1]; UDP-Rhamnose (2 mM), 48 hours
  % Reb A bioconversion: 25%
[1]; UDP-Rhamnose (2 mM), 96 hours
  % Reb A bioconversion: 30%
[1]; UDP-Xylose (1 mM), 0 hours
  % Reb A bioconversion: 0%
[1]; UDP-Xylose (1 mM), 18 hours
  % Reb A bioconversion: 60.09%
[1]; UDP-Xylose (1 mM), 48 hours
  % Reb A bioconversion: 60.39%
[1]; UDP-Xylose (1 mM), 96 hours
  % Reb A bioconversion: 60.66%
[1]; UDP-Xylose (2 mM), 0 hours
  % Reb A bioconversion: 0%
[1]; UDP-Xylose (2 mM), 18 hours
  % Reb A bioconversion: 83.26%
[1]; UDP-Xylose (2 mM), 48 hours
  % Reb A bioconversion: 83.5%
[1]; UDP-Xylose (2 mM), 96 hours
  % Reb A bioconversion: 82.33%
[2]; times sweeter than sucrose
  sweetness relative to sucrose: 250-300 times

## C=C1C[C@@]23CC[C@H]4[C@@](C)(CCC[C@@]4(C)C(=O)O[C@@H]4O[C@H](CO)[C@@H](O)[C@H](O)[C@H]4O[C@@H]4O[C@H](CO)[C@@H](O)[C@H](O)[C@H]4O)[C@@H]2CC[C@]1(O[C@@H]1O[C@H](CO)[C@@H](O)[C@H](O[C@@H]2O[C@H](CO)[C@@H](O)[C@H](O)[C@H]2O)[C@H]1O[C@@H]1O[C@H](CO)[C@@H](O)[C@H](O)[C@H]1O)C3 [Reb D, Rebaudioside D]
[3]
  % SG bioconversion with UDP-xylose: ~10%
UGT76G1
  % SG bioconversion with UDP-xylose: 0%

## C=C1C[C@@]23CC[C@H]4[C@@](C)(CCC[C@@]4(C)C(=O)O)[C@@H]2CC[C@]1(O[C@@H]1O[C@H](CO)[C@@H](O)[C@H](O[C@@H]2O[C@H](CO)[C@@H](O)[C@H](O)[C@H]2O)[C@H]1O[C@@H]1O[C@H](CO)[C@@H](O)[C@H](O)[C@H]1O)C3 [Reb B]
[3]
  % SG bioconversion with UDP-xylose: 0%
UGT76G1
  % SG bioconversion with UDP-xylose: 0%

## rebaudioside C [Reb C]
UGT76G1
  % SG bioconversion with UDP-xylose: 11.0% and 10.1%
[2]; times sweeter than glucose
  sweetness relative to glucose: 30 times

## C=C1C[C@@]23CC[C@H]4[C@@](C)(CCC[C@@]4(C)C(=O)O[C@@H]4O[C@H](CO)[C@@H](O)[C@H](O)[C@H]4O)[C@@H]2CC[C@]1(O[C@@H]1O[C@H](CO)[C@@H](O)[C@H](O)[C@H]1O[C@@H]1O[C@H](CO)[C@@H](O)[C@H](O)[C@H]1O)C3 [Stevioside, stevioside]
[3]
  % SG bioconversion with UDP-xylose: 85.9% and 90.2%
[3]; listed as stevioside
  % SG bioconversion with UDP-xylose: very high conversion
UGT76G1
  % SG bioconversion with UDP-xylose: 40.5% and 39.0%

## C=C1C[C@@]23CC[C@H]4[C@@](C)(CCC[C@@]4(C)C(=O)O[C@@H]4O[C@H](CO)[C@@H](O)[C@H](O[C@@H]5O[C@H](CO)[C@@H](O)[C@H](O)[C@H]5O)[C@H]4O[C@@H]4O[C@H](CO)[C@@H](O)[C@H](O)[C@H]4O)[C@@H]2CC[C@]1(O[C@@H]1O[C@H](CO)[C@@H](O)[C@H](O[C@@H]2O[C@H](CO)[C@@H](O)[C@H](O)[C@H]2O)[C@H]1O[C@@H]1O[C@H](CO)[C@@H](O)[C@H](O)[C@H]1O)C3 [Reb M, Rebaudioside M]
[3]
  % SG bioconversion with UDP-xylose: 0%
UGT76G1
  % SG bioconversion with UDP-xylose: 0%
